Consider 23 molecules from patent US11555042B2, “Macrocyclic compounds as TRK kinases inhibitors” (FOCHON BIOSCIENCES, LTD., priority 2018, dated 2023).

The term IC50 denotes the concentration at which inhibition is half-maximal. Low values mean inhibition by little substance, high ones a need for much substance.

Structures are written as SMILES.

Experiment [1] concerns KM12 cells. As to the kind of experiment: KM12 cells proliferation inhibition (MTS), mechanism-based assay for TRK. It is filed as cell-based. An excerpt: (§1) MTS testing kit was purchased from Promega (Madison, Wis., USA). The RPMI-1640, Fetal bovine serum and Penicillin-Streptomycin were purchased from Gibco (San Francisco, Calif., USA). Dimethyl sulfoxide (DMSO) and Puromycin were purchased from Sigma (St. Louis., Mo., USA). Mouse interleukin-3 (IL-3) was purchased from Cell signaling Technology (Boston, Mass., USA).
To investigate whether a compound is able to inhibit the activity of TRK in cells, a mechanism-based assay using KM12 cells was developed. In this assay, inhibition of TRK was detected by the inhibition of KM12 cells proliferation. KM12 cells were cultured in culture flasks to 40-80% confluence in RPMI-1640 plus 10% fetal bovine serum. Cells were collected and plated onto 96-well plates at 1000 cells/well. Plates were incubated at 37° C., with 5% CO2 for 4 h. Compounds were added to the plates, the final compound concentrations were […], 123.5, 41.2, 13.7, 4.6 and 1.5 nM. Place plates at 37° C., with 5% CO2 for KM12 cells 72 h. 20 μl MTS/100 μl medium mixture solution were added to each well and incubate the plates for exactly 2 h. Stop the reaction by adding 25 μl 10% SDS per well. Measure absorbance at 490 nm and 650 nm (reference wavelength). IC50 was calculated using GraphPad Prism 5.0.

For experiment [2], the target named is T1, ETV6-TRKC-G623R (Homo sapiens, UniProt Q16288, G623R).
T1 construct: fused on or other part: P41212 (Transcription factor ETV6)
T1 sequence (Q16288 whole entry G623R, the tested form may be a part): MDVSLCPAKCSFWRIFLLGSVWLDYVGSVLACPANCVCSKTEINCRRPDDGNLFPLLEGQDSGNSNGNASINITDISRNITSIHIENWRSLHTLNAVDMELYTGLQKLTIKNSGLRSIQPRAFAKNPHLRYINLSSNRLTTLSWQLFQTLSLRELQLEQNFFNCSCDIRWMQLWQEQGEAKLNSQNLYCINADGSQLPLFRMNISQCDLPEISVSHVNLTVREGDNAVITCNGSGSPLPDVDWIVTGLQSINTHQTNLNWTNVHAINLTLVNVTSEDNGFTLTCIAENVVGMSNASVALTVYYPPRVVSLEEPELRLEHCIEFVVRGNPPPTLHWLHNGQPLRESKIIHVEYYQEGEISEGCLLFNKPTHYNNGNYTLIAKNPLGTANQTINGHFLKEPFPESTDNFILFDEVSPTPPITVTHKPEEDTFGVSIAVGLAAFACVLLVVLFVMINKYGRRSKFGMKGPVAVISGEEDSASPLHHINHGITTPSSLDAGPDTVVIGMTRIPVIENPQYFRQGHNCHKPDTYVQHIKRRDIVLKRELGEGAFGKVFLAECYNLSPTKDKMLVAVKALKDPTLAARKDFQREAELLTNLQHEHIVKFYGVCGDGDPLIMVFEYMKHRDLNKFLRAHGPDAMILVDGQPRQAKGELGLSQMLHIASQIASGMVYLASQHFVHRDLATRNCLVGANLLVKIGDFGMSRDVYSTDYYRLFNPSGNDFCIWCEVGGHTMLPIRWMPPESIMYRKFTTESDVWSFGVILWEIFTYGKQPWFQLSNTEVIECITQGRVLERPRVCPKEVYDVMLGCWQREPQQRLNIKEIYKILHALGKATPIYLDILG
As to the kind of experiment: Engineered Ba/F3 cell proliferation inhibition (MTS), ETV6-TRKC-G623R. It is filed as cell-based. The conditions noted are these: 72 h.
Source text: as §1
To investigate whether a compound is able to inhibit the activity of TRK fusion mutation in cells, a mechanism-based assay using engineered Ba/F3 cell lines stably overexpressing oncogenic rearrangement or gene mutation of TRK (TPM3-TRKA, TPM3-TRKA-G595R, AFAP1-TRKB, ETV6-TRKC and ETV6-TRKC-G623R) were developed. In this assay, inhibition of TRK fusion mutation was detected by the cell proliferation inhibition of engineered Ba/F3 cells. Engineered Ba/F3 cells were cultured in culture flasks to 40-80% confluence in RPMI-1640 supplemented with 10% fetal bovine serum, 2 ug/mL puromycin. Cells were collected and plated onto 96-well plates at desired cell density (Ba/F3-TPM3-TRKA: 3×10^4/mL, Ba/F3-TPM3-TRKA-G595R: 1×10^5/mL, Ba/F3-AFAP1-TRKB: 1×10^5/mL, Ba/F3-ETV6-TRKC: 3×10^4/mL, Ba/F3-ETV6-TRKC-G623R: 3×10^4/mL). Plates were incubated at 37° C., with 5% CO2 for 4 h. Compounds were then added to the plates with the final compound concentrations of 10000, 3333, 1111, […], 123, 41.2, 13.7, 4.6 and 1.5 nM. Plates were incubated at 37° C., with 5% CO2 for 72 h. A mixture of 20 μl MTS/100 μl medium were added to each well and the plates were incubated at 37° C., with 5% CO2 for exactly 2 h. The reaction was stopped by adding 25 μl of 10% SDS per well. The absorbance was measured at 490 nm and 650 nm (reference wavelength). IC50 was calculated using GraphPad Prism 5.0 software.

In experiment [1] (Homo sapiens, KM12, 72 h), `C[C@@H]1COc2ccc(F)cc2C2(CC2)Nc2ccn3ncc(c3n2)C(=O)N1` [Example 2, (R,3′E,4′E)-5′-fluoro-7′-methylspiro[cyclopropane-1,3′-5-oxa-2,8-diaza-1(5,3)-pyrazolo[1,5-a]pyrimidina-4(1,2)-benzenacyclononaphan]-9′-one] registered a half-inhibitory concentration (IC50) of 1 nM.

On to `C[C@@H]1CNC(=O)c2cnn3ccc(nc23)NC2(CC2)c2cc(F)cnc2O1` [Example 42, (R,3′E,4′E)-5′-fluoro-6′-methylspiro-[cyclopropane-1,3′-5-oxa-2,8-diaza-1(5,3)-pyrazolo[1,5-a]pyrimidina-4(3,2)-pyridina-cyclononaphan]-9′-one], for which the IC50 in experiment [1] (Homo sapiens, KM12, 72 h) was determined as 3 nM.

As for `C[C@@H]1CCc2ccc(F)cc2C23CC2CCN3c2ccn3ncc(c3n2)C(=O)N1` (stereo partly drawn) [Example 12B, (1^3E,1^4E,6R)-3^5-fluoro-6-methyl-2^2,7-diaza-1(5,3)-pyrazolo[1,5-a]pyrimidina-2(2,1)-bicyclo[3.1.0]hexana-3(1,2)-benzenacyclooctaphan-8-one], in experiment [1] (72 h), the IC50 amounted to 2 nM.

`O=C1NCC2(CC2)COc2ncc(F)cc2[C@@]23C[C@@H]2CCN3c2ccn3ncc1c3n2` [Example 79, (1′R,3′E,4′E,5′S)-5′-fluorospiro-[cyclopropane-1,6′-4-oxa-2^2,8-diaza-1(5,3)-pyrazolo[1,5-a]pyrimidina-3(3,2)-pyridina-2(2,1)-bicyclo[3.1.0]hexana-cyclononaphan]-9′-one] had a concentration for half-maximal inhibition (IC50) in experiment [2] of 1 nM.

In experiment [1] (Homo sapiens, KM12, 72 h), `C[C@@H]1CCc2ccc(F)cc2C23CC2CCN3c2ccn3ncc(c3n2)C(=O)N1` (stereo partly drawn) [Example 12A, (1^3E,1^4E,6R)-3^5-fluoro-6-methyl-2^2,7-diaza-1(5,3)-pyrazolo[1,5-a]pyrimidina-2(2,1)-bicyclo[3.1.0]hexana-3(1,2)-benzenacyclooctaphan-8-one] gave an IC50 of 1 nM.

In experiment [2], `[2H]C([2H])([2H])N1c2ccn3ncc(c3n2)C(=O)NC2(CCc3ncc(F)cc3C13CC3)CC2` [Example 97, (3′E,4′E)-5′-fluoro-2′-(methyl-d3)-dispiro [cyclopropane-1,3′-2,8-diaza-1(5,3)-pyrazolo[1,5-a]pyrimidina-4(3,2)-pyridinacyclononaphane-7′,1″- cyclopropan]-9′-one] displayed an IC50 of 25 nM.

Consider `C[C@@H]1COc2ncc(F)cc2C23CC2CCN3c2ccn3ncc(c3n2)C(=O)N1` (stereo partly drawn) [Example 6, (1^3E,1^4E,6R)-3^5-fluoro-6-methyl-4-oxa-2^2,7-diaza-1(5,3)-pyrazolo[1,5-a]-pyrimidina-3(3,2)-pyridina-2(2,1)-bicyclo[3.1.0]hexanacyclooctaphan-8-one], for which the concentration for half-maximal inhibition (IC50) in experiment [1] (Homo sapiens, KM12, 72 h) came to 1 nM.

`C[C@H]1CNC(=O)c2cnc3ccc(nn23)N2CCC3CC32c2cc(F)ccc2O1` (stereo partly drawn) [Example 32, (5S,E)-3^5-fluoro-5-methyl-4-oxa-2^2,7-diaza-1(6,3)-imidazo[1,2-b]pyridazina-2(2,1)-bicyclo[3.1.0]hexana-3(1,2)-benzenacyclo-octaphan-8-one]: it took 1 nM to reach half-maximal inhibition in experiment [1] (Homo sapiens, KM12, 72 h) (IC50). This counts as single-digit nanomolar.

For the molecule `C[C@@H]1COc2ccc(F)cc2C23CC2CCN3c2ccc3ncc(n3n2)C(=O)N1` (stereo partly drawn) [Example 13, (6R,E)-3^5-fluoro-6-methyl-4-oxa-2^2,7-diaza-1(6,3)-imidazo[1,2-b]pyridazina-2(2,1)-bicyclo[3.1.0]hexana-3(1,2)-benzenacyclooctaphan-8-one], the midpoint of inhibition in experiment [1] (Homo sapiens, KM12, 72 h), the IC50, lay at 1 nM.

In experiment [1] (Homo sapiens, KM12, 72 h), `C[C@H]1CNC(=O)c2cnn3ccc(nc23)NC2(CC2)c2cc(F)ccc2O1` [Example 4, (S,3′E,4′E)-5′-fluoro-6′-methylspiro[cyclopropane-1,3′-5-oxa-2,8-diaza-1(5,3)-pyrazolo[1,5-a]pyrimidina-4(1,2)-benzenacyclononaphan]-9′-one] gave an IC50 of 1 nM.

Turning to `C[C@@H]1CCc2ncc(F)cc2C2(CC2)Nc2ccn3ncc(c3n2)C(=O)N1` [Example 10, (R,3′E,4′E)-5′-fluoro-7′-methylspiro[cyclopropane-1,3′-2,8-diaza-1(5,3)-pyrazolo[1,5-a]pyrimidina-4(3,2)-pyridinacyclononaphan]-9′-one], inhibition in experiment [1] (Homo sapiens, KM12, 72 h) was half-maximal at 1 nM (IC50).

In experiment [2], `[2H]C([2H])([2H])N1c2ccn3ncc(c3n2)C(=O)NC2(CC2)COc2ccc(F)cc2C12CC2` [Example 89, (3′E,4′E)-5′-fluoro-2′-(methyl-d3)dispiro [cyclopropane-1,3′-5-oxa-2,8-diaza-1(5,3)-pyrazolo[1,5-a]pyrimidina-4(1,2)-benzena-cyclononaphan-7′,1″-cyclopropan]-9′-one] yielded an IC50 of 1 nM.

Molecule `C[C@H]1CNC(=O)c2cnc3ccc(nn23)N2CCC3CC32c2cc(F)cnc2O1` (stereo partly drawn) [Example 34, (5S,E)-3^5-fluoro-5-methyl-4-oxa-2^2,7-diaza-1(6,3)-imidazo[1,2-b]pyridazina-3(3,2)-pyridina-2(2,1)-bicyclo[3.1.0]-hexanacyclooctaphan-8-one] displayed an IC50 in experiment [1] (Homo sapiens, KM12, 72 h) of 1 nM.

The molecule `C[C@@H]1COc2ccc(F)cc2C2(CC2)N(C)c2ccc3ncc(n3n2)C(=O)N1` [Example 53, (7′R,E)-5′-fluoro-2′,7′-dimethylspiro-[cyclopropane-1,3′-5-oxa-2,8-diaza-1(6,3)-imidazo[1,2-b]pyridazina-4(1,2)-benzenacyclononaphan]-9′-one] showed an IC50 in experiment [1] (Homo sapiens, KM12, 72 h) of 30 nM.

For `C[C@@H]1COc2ccc(F)cc2C23CC2CCN3c2ccn3ncc(c3n2)C(=O)N1` (stereo partly drawn) [Example 1, (1^3E,1^4E,6R)-3^5-fluoro-6-methyl-4-oxa-2^2,7-diaza-1(5,3)-pyrazolo[1,5-a]pyrimidina-2(2,1)-azabicyclo[3.1.0]hexana-3(1,2)-benzenacyclooctaphan-8-one], the IC50 in experiment [1] (Homo sapiens, KM12, 72 h) stood at 1 nM.

Consider `C[C@H]1CNC(=O)c2cnn3ccc(nc23)NC2(CC2)c2cc(F)cnc2O1` [Example 9, (S,3′E,4′E)-5′-fluoro-6′-methylspiro[cyclopropane-1,3′-5-oxa-2,8-diaza-1(5,3)-pyrazolo[1,5-a]pyrimidina-4(3,2)-pyridinacyclononaphan]-9′-one], for which the midpoint of inhibition in experiment [1] (Homo sapiens, KM12, 72 h), the IC50, lay at 7 nM.

Consider `C[C@@H]1CCc2ncc(F)cc2C23CC2CCN3c2ccc3ncc(n3n2)C(=O)N1` (stereo partly drawn) [Example 35, (6R,E)-3^5-fluoro-6-methyl-2^2,7-diaza-1(6,3)-imidazo[1,2-b]pyridazina-3(3,2)-pyridina-2(2,1)-bicyclo[3.1.0]hexanacyclo-octaphan-8-one], for which the midpoint of inhibition in experiment [1] (Homo sapiens, KM12, 72 h), the IC50, lay at 1 nM.

As to `C[C@@H]1CCc2ccc(F)cc2C23CC2CCN3c2ccc3ncc(n3n2)C(=O)N1` (single isomer, unassigned) [Example 33B], the 50% inhibitory concentration (IC50) in experiment [1] (72 h) was 1 nM.

In turn, `C[C@H]1CNC(=O)c2cnn3ccc(nc23)N2CCC3CC32c2cc(F)cnc2O1` (stereo partly drawn) [Example 7, (1^3E,1^4E,5S)-3^5-fluoro-5-methyl-4-oxa-2^2,7-diaza-1(5,3)-pyrazolo[1,5-a]pyrimidina-3(3,2)-pyridina-2(2,1)-bicyclo[3.1.0]hexanacyclooctaphan-8-one] displayed a half-inhibitory concentration (IC50) in experiment [1] (Homo sapiens, KM12, 72 h) of 1 nM.

Regarding `C[C@@H]1CCc2ccc(F)cc2C23CC2CCN3c2ccc3ncc(n3n2)C(=O)N1` (single isomer, unassigned) [Example 33A], the IC50 in experiment [1] (Homo sapiens, KM12, 72 h) was 1 nM.

With `C[C@@H]1CCc2ccc(F)cc2C2(CC2)N(C)c2ccc3ncc(n3n2)C(=O)N1` [Example 56, (7′R,E)-5′-fluoro-2′,7′-dimethylspiro-[cyclopropane-1,3′-2,8-diaza-1(6,3)-imidazo[1,2-b]pyridazina-4(1,2)-benzenacyclononaphan]-9′-one], half-maximal inhibition in experiment [1] (Homo sapiens, KM12, 72 h) (IC50) required 3 nM.

For `C[C@@H]1COc2ncc(F)cc2C23CC2CCN3c2ccc3ncc(n3n2)C(=O)N1` (stereo partly drawn) [Example 14, (6R,E)-3^5-fluoro-6-methyl-4-oxa-2^2,7-diaza-1(6,3)-imidazo[1,2-b]pyridazina-3(3,2)-pyridina-2(2,1)-bicyclo[3.1.0]hexanacyclooctaphan-8-one], the IC50 in experiment [1] (Homo sapiens, KM12, 72 h) was determined as 1 nM. Against the preceding molecule, the IC50 is about 3-fold lower.

The molecule `C[C@@H]1CCc2ncc(F)cc2C23CC2CCN3c2ccn3ncc(c3n2)C(=O)N1` (stereo partly drawn) [Example 5, (1^3E,1^4E,6R)-3^5-fluoro-6-methyl-2^2,7-diaza-1(5,3)-pyrazolo[1,5-a]pyrimidina-3(3,2)-pyridina-2(2,1)-bicyclo[3.1.0]hexanacyclooctaphan-8-one] gave a 50% inhibitory concentration (IC50) in experiment [1] (Homo sapiens, KM12, 72 h) of 1 nM.
